Test results reported in ChEMBL document CHEMBL1128631, “Photoinduced electron transfer for pyrenesulfonamide conjugates of tryptophan-containing peptides. Mitigation of fluoroprobe behavior in N-terminal labeling experiments” (Bioorg Med Chem Lett, 1995).

Assays:
Assay type in all cases: ADME
[1] = Half-life time was measured in the presence of methyl cyanide solvent
[2] = Life-time was measured in the presence of DMF solvent (t = weighted average of two lifetimes from biexponential decay)
[3] = Life-time was measured in the presence of methyl cyanide solvent (t = weighted average of two lifetimes from biexponential decay)

| SMILES | T1/2 [1] [us] | t [2] [ns] | t [3] [ns] |
| --- | --- | --- | --- |
| CCOC(=O)[C@H](Cc1c[nH]c2ccccc12)NC(=O)[C@H](C)NC(=O)[C@H](C)NS(=O)(=O)c1ccc2ccc3ccc([N+](=O)[O-])c4ccc1c2c34 | 0.16 |  |  |
| CCOC(=O)[C@H](Cc1c[nH]c2ccccc12)NS(=O)(=O)c1ccc2ccc3cccc4ccc1c2c34 |  | 0.32 | 0.79 |
| CCOC(=O)[C@H](Cc1c[nH]c2ccccc12)NC(=O)[C@H](C)NC(=O)[C@H](C)NS(=O)(=O)c1ccc2ccc3cccc4ccc1c2c34 |  | 1.3 | 3.1 |
| CCOC(=O)[C@H](Cc1c[nH]c2ccccc12)NC(=O)[C@H](C)NS(=O)(=O)c1ccc2ccc3cccc4ccc1c2c34 |  | 0.5 | 0.76 |
| CCOC(=O)[C@H](C)NS(=O)(=O)c1ccc2ccc3ccc([N+](=O)[O-])c4ccc1c2c34 | 12 |  |  |
| CCOC(=O)[C@H](Cc1c[nH]c2ccccc12)NC(=O)[C@H](C)NS(=O)(=O)c1ccc2ccc3ccc([N+](=O)[O-])c4ccc1c2c34 | 0.4 |  |  |
